Experimental data published in PMC5049494, “Nitrotriazole-based acetamides and propanamides with broad spectrum antitrypanosomal activity” (European Journal of Medicinal Chemistry, 2016).
Like-named read-outs stand apart in the source and are kept apart here.

Legend:
[1] = system: L6 cells (rat skeletal myoblasts); experiment: Cytotoxicity in the host L6 cells; type: cell-based; settings: for fold less toxic towards L6 cells relative to unsubstituted compounds 10 and 10a: 9 vs 10, 9a vs 10a
Description: (§1) Compounds in Table 1 were screened for anti-parasitic activity against three trypanosomatids: T. cruzi, T. b. rhodesiense and Leishmania donovani and compared with previously made analogs shown in orange and designated with a. […] In addition, compounds were tested for toxicity in L6 rat skeletal myoblasts, the host cells for T. cruzi amastigotes, in order to calculate a selectivity index for each parasite [SI = IC50L6/IC50parasite] (Table 1). The TDR (Special Programme for Research and Training in Tropical Diseases, World Health Organization) criteria were adopted to interpret antiparasitic activity and selectivity.
(§2) In vitro activity against T. cruzi, T. b. rhodesiense, L. donovani and cytotoxicity assessment using L6 cells (rat skeletal myoblasts) was determined using a 96-well plate format as previously described. Data were analyzed with the graphic program Softmax Pro (Molecular Devices, Sunnyvale, CA, USA), which calculated IC50 values by linear regression from the sigmoidal dose inhibition curves.

[2] = system: T.b. rhodesiense, strain STIB 900 trypomastigotes; parameters: method as in PMID 26344593, PMID 25580906; settings: cited from earlier work
[3] = system: L6 cells (rat skeletal myoblasts); parameters: method as in PMID 26344593, PMID 25580906; settings: previously evaluated compounds (orange, designated a); read-out: Cyt. L6 IC50; cited from earlier work
[4] = system: transgenic T. cruzi parasites expressing firefly luciferase; type: in vivo, Balb/c mice
Description: A fast luminescence assay was used in an acute infected murine model, in which transgenic T. cruzi parasites expressing firefly luciferase were injected in 5 week-old Balb/c mice. Mice were injected with D-luciferin before imaging. Groups of 5 mice/group were treated i.p. for 10 consecutive days with each compound, at 13 or 15 mg/kg/day. […] The mean ratio of parasite levels was calculated after 5 and 10 days of treatment.
For in vivo studies, a Brazilian strain trypomastigotes from transgenic T. cruzi parasites expressing firefly luciferase were used as described before. Briefly, parasites (10^5 trypomastigotes) were injected in 5 week-old Balb/c mice (Taconic) and three days later mice were anesthesized by inhalation of isofluorane, followed by an injection with 150 mg/kg of D-luciferin potassium-salt in PBS. Mice were imaged 5–10 min after injection of luciferin with an IVIS 100 (Xenogen, Alameda, CA) and the data acquisition and analysis were performed with the software LivingImage (Xenogen) as described before. Treatment with test compounds started 4 days post infection at 13 or 15 mg/kg/day × 10 days, given i.p. The vehicle control was 2% methylcellulose +0.5% Tween 80 and groups of 5 mice/group were used. Mice were imaged after 5 and 10 days of treatment. The ratio of parasite levels was calculated for each animal dividing the luciferase signal after treatment by the luciferase signal on the first imaging (before treatment). Mean values of all animals in each group ± SD were used for plotting.

[5] = system: T.b. rhodesiense, strain STIB 900 trypomastigotes; experiment: In vitro activity against T. b. rhodesiense; type: cell-based; settings: for IC50: Trypanosoma brucei, T.b. rhodesiense STIB 900 trypomastigotes, means of 2 to 3 measurements, SD < 5%, read-out: T.b.r. IC50
Description: as §1, §2

[6] = system: bloodstream form T.b. brucei wild type; experiment: T. brucei antiproliferating assay, wild type; type: cell-based; settings: Trypanosoma brucei, read-out: IC50 value T.b. brucei Wild type, bloodstream form; means from 4 experiments ± SD
Description: The BSF of T. brucei parasites were seeded at 1 × 10^3 mL^−1 in 200 μL of growth medium containing different concentrations of nitroheterocycle. Where appropriate, induction of the TbNTR was carried out by adding tetracycline (1 μg/mL). After incubation for 3 days at 37 °C, 20 μL of Alamar blue was added to each well and the plates incubated for a further 16 h. The cell density of each culture was determined as described before and the IC50 established.

[7] = system: L. donovani axenic, strain MHOM-ET-67/L82 amastigotes; experiment: In vitro activity against L. donovani; type: cell-based; settings: for IC50: Leishmania donovani, L. donovani axenic amastigotes MHOM-ET-67/L82, means of 2 to 3 measurements, SD < 5%, read-out: L.d. IC50
Description: (§3) The concentration of compound that inhibits parasite growth by 50% (IC50) was calculated from dose response curves for each parasite (Table 1). In addition, compounds were tested for toxicity in L6 rat skeletal myoblasts, the host cells for T. cruzi amastigotes, in order to calculate a selectivity index for each parasite [SI = IC50L6/IC50parasite]
(§4) In vitro activity against T. cruzi, T. b. rhodesiense, L. donovani and cytotoxicity assessment using L6 cells (rat skeletal myoblasts) was determined using a 96-well plate format as previously described [37]. Data were analyzed with the graphic program Softmax Pro (Molecular Devices, Sunnyvale, CA, USA), which calculated IC50 values by linear regression from the sigmoidal dose inhibition curves.

[8] = system: bloodstream form T.b. brucei recombinant parasites expressing wild type (-tet) or elevated (+tet) levels of TbNTR; experiment: microbe, parasite or virus in culture; type: cell-based; settings: Trypanosoma brucei
Description: The BSF of T. brucei parasites were seeded at 1 × 10^3 mL^−1 in 200 μL of growth medium containing different concentrations of nitroheterocycle. Where appropriate, induction of the TbNTR was carried out by adding tetracycline (1 μg/mL). After incubation for 3 days at 37 °C, 20 μL of Alamar blue was added to each well and the plates incubated for a further 16 h. The cell density of each culture was determined as described before [20] and the IC50 established.

[9] = Cytotoxicity in the host L6 cells; type: cell-based, rat; settings: rat, L6 cells (rat skeletal myoblasts); cytotoxicity in host L6 cells; read-out: Cyt. L6 IC50
Description: as §1, §2

[10] = system: T. cruzi, strain Tulahuen C4 amastigotes; experiment: In vitro activity against T. cruzi; type: cell-based; settings: for SI (T. c.): IC50 in L6 cells/IC50 in T. cruzi; for IC50: Trypanosoma cruzi, T. cruzi Tulahuen C4 amastigotes, means of 2 to 3 measurements, SD < 5%, read-out: T. c. IC50; for Bnz/comp: fold antichagasic potency relative to Bnz (T. cruzi IC50 ratio)
Description: as §3, §4

[11] = propanamide vs acetamide analog

For N#Cc1ccc(-c2ccc(NC(=O)Cn3cnc([N+](=O)[O-])n3)cc2)cc1 [Compound 9a], the “fold less toxic towards L6 cells relative to unsubstituted compounds 10 and 10a” value [1] is given as greater than 3.5 fold, the “anti-HAT activity class (TDR criteria)” value ([2]; T. b. rhodesiense, previously evaluated acetamides) is given as “active” and the IC50 ([2]; previously evaluated compounds (orange, designated a), read-out: T.b.r. IC50) is given as 0.336 µM. For the same molecule, the IC50 [3] was 165 µM.

With N#Cc1ccc(-c2ccc(NC(=O)CCn3cnc([N+](=O)[O-])n3)cc2)cc1 [Compound 9, N-(4′-cyano-[1,1′-biphenyl]-4-yl)-3-(3-nitro-1H-1,2,4-triazol-1-yl)propanamide] the “toxicity symptoms in treated mice” value ([4]; 15 mg/kg/day i.p. x 10 days) was “No toxicity symptoms were observed”, the “parasite load after 10 days of treatment” value ([4]; 15 mg/kg/day i.p. x 10 days, acute murine model, p < 0.0001) was “undetectable levels” and the “parasitic level after 5-day treatment” value ([4]; 15 mg/kg/day i.p., compared to untreated control) was “Statistically significant reduction in parasitic level”. For the same molecule, the “SI (T.b.r.)” value ([5]; IC50 in L6 cells/IC50 in T.b. rhodesiense) was 2527, the IC50 [5] was 0.091 µM and the “fold more potent against T. b. rhodesiense than the corresponding acetamide” value [5, 11] was 3.7 fold. For the same molecule, the IC50 [6] was 0.12 ± 0.01 µM, the “SI (L.d.)” value ([7]; IC50 in L6 cells/IC50 in L. donovani) was 73 and the “antileishmanial activity class (TDR criteria)” value ([7]; L. donovani) was “moderately active (‘moderate activity’ (IC50 between 1.0 and 6.0 μM))”. It also gave an IC50 [7] of 3.17 µM, an IC50 ([8]; read-out: IC50 value T.b. brucei TbNTR (+tet)) of 0.12 ± 0.01 µM and an IC50 ([8]; read-out: IC50 value T.b. brucei TbNTR (-tet)) of 0.55 ± 0.04 µM. For the same molecule, the IC50 [9] was 230 µM, the “fold less toxic towards L6 cells relative to unsubstituted compounds 10 and 10a” value [1] was greater than 6 fold and the “SI (T. c.)” value [10] was 2453. For the same molecule, the IC50 [10] was 0.094 µM, the Bnz/comp [10] was 23 and the “fold more potent against T. cruzi than the acetamide analog” value [10, 11] was “about 1.5 fold”.

In the case of CN(C(=O)Cn1cnc([N+](=O)[O-])n1)c1ccc(C(F)(F)F)cc1 [Compound 2, N-methyl-2-(3-nitro-1H-1,2,4-triazol-1-yl)-N-(4-(trifluoromethyl)phenyl)acetamide], the “anti-HAT activity class (TDR criteria)” value ([5]; T. b. rhodesiense) is reported as “inactive”, the IC50 [5] is reported as 37.4 µM and the IC50 [7] is reported as 47.7 µM. For the same molecule, the melting point was 133 to 134 °C, the IC50 [9] was 254 µM and the “fold decrease in toxicity against L6 cells compared to 2a” value ([1]; compared with 2a) was 2 fold. For the same molecule, the “SI (T. c.)” value [10] was roughly 165, the IC50 [10] was 1.54 µM and the “fold decrease in antichagasic activity compared to 2a” value ([10]; compared with 2a) was 1.6 fold. The “fold more potent towards T. cruzi amastigotes than 2-nitroimidazole counterpart 3” value ([10]; compared with 3) was 32 fold and the Bnz/comp [10] was 1.4.
